Test results reported in ChEMBL document CHEMBL1641363, “Fragment-based discovery of 6-substituted isoquinolin-1-amine based ROCK-I inhibitors” (Bioorg Med Chem Lett, 2011).

Key:
[1] = biological target: T1, Rho-associated protein kinase 1 (Homo sapiens, UniProt Q13464); test: Displacement of Y-27632 from ROCK-1 assessed as drop in intensity of binding signals by NMR competition experiment; set-up: concentration or dose not given beside the values
Target sequence in this assay (Q13464 2-1354 limits assumed): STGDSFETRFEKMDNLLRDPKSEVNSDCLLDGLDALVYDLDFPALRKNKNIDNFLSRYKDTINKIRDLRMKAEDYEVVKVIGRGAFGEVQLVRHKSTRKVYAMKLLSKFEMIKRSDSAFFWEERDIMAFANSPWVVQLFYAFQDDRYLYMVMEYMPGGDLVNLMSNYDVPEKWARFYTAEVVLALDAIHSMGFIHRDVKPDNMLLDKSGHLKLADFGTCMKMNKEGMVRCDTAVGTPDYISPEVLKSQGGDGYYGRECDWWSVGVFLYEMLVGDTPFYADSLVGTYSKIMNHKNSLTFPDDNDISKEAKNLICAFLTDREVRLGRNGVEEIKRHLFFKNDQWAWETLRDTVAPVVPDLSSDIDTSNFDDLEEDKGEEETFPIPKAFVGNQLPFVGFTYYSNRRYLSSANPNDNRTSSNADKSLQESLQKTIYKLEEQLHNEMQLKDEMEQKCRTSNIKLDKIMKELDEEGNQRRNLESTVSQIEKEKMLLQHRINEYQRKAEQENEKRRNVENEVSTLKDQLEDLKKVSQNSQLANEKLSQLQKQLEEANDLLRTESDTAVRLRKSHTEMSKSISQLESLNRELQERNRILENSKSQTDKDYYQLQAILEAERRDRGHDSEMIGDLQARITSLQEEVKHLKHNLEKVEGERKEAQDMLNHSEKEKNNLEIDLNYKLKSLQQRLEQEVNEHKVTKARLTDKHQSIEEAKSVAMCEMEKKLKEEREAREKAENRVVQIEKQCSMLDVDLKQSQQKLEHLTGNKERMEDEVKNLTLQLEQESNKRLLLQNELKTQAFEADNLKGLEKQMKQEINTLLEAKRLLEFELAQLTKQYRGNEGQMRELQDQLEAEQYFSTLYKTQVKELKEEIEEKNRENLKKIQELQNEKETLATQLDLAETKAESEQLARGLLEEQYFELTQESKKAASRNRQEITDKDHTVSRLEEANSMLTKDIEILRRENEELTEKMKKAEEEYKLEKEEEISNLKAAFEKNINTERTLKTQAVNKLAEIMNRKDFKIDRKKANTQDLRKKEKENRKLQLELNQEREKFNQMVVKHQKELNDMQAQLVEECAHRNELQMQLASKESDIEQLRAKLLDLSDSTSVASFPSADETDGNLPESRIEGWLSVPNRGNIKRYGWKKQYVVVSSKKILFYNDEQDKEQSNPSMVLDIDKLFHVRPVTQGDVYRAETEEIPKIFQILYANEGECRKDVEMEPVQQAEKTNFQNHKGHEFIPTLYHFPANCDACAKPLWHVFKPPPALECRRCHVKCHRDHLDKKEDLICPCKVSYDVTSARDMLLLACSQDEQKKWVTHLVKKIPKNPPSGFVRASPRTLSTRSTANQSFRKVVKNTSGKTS

[2] = biological target: T1, Rho-associated protein kinase 1; test: Inhibition of ROCK-1 by Immobilized metal ion affinity-based fluorescence polarization assay
Target sequence in this assay (Q13464 whole entry): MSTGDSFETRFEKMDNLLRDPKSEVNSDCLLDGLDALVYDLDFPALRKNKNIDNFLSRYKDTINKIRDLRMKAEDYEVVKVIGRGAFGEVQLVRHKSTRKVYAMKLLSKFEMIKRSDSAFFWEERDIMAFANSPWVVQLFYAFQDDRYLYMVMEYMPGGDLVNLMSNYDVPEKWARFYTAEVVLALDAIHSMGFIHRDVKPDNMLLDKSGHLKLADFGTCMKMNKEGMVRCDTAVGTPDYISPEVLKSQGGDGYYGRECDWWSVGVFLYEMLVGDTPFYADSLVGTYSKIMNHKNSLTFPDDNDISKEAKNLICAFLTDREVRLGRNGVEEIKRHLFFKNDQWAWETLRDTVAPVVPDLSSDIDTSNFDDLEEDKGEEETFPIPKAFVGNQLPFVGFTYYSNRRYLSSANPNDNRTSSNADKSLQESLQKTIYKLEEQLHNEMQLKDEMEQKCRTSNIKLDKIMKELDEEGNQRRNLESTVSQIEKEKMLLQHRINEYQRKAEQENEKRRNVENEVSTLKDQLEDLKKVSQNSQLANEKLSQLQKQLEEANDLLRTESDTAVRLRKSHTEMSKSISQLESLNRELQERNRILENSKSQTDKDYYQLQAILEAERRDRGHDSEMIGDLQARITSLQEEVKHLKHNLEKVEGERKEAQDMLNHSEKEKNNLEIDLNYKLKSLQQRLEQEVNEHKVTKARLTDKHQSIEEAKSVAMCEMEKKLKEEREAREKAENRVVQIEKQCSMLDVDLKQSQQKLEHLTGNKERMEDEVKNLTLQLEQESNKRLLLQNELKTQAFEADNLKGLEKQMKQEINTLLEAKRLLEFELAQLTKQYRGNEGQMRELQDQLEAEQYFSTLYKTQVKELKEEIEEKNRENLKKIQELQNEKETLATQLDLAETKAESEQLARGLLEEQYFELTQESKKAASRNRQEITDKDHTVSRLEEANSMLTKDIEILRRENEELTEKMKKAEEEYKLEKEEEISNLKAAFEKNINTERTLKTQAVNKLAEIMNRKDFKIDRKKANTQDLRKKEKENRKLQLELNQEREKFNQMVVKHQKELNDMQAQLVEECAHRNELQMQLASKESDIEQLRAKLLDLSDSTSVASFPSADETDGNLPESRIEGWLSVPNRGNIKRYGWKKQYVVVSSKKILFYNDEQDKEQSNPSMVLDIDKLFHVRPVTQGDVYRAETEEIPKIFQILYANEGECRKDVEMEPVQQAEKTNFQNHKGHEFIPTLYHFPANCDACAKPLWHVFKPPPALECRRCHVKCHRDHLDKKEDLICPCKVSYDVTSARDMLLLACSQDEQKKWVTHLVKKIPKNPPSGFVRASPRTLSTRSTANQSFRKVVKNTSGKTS

[3] = biological target: Rho-associated protein kinase 2 (Homo sapiens, UniProt O75116); test: Inhibition of ROCK-2 by Immobilized metal ion affinity-based fluorescence polarization assay
[4] = biological target: T1, Rho-associated protein kinase 1; test: Inhibition of ROCK-1
Target sequence in this assay (Q13464 whole entry): as above

[5] = biological target: Voltage-gated inwardly rectifying potassium channel KCNH2 (Homo sapiens, UniProt Q12809); test: Displacement of [3H]dofetilide from human ERG
[6] = Oral bioavailability in C57 mouse; type: ADME, organism-based; settings: in vivo
[7] = Volume of distribution at steady state in C57 mouse; type: ADME, organism-based; settings: in vivo, read-out: Vdss
[8] = Plasma clearance in C57 mouse; type: ADME, organism-based
[9] = Half life in C57 mouse; type: ADME, organism-based; settings: in vivo
[10] = Oral bioavailability in Wistar rat; type: ADME, organism-based; settings: in vivo
[11] = Permeability from basolateral to apical side of human Caco2 cells; type: ADME, cell-based; settings: Caco-2, read-out: permeability
[12] = Half life in rat liver microsome; type: ADME; settings: liver microsomes
[13] = Half life in Wistar rat; type: ADME, organism-based; settings: in vivo
[14] = Half life in mouse liver microsome; type: ADME; settings: liver microsomes
[15] = Half life in human liver microsome; type: ADME; settings: liver microsomes
[16] = Half life in rat hepatocyte; type: ADME, cell-based, Liver; settings: hepatocytes
[17] = Volume of distribution at steady state in Wistar rat; type: ADME, organism-based; settings: in vivo, read-out: Vdss
[18] = Permeability from apical to basolateral side of human Caco2 cells; type: ADME, cell-based; settings: Caco-2, read-out: permeability
[19] = Plasma clearance in Wistar rat; type: ADME, organism-based
[20] = Dissociation constant, pKa of the compound; type: physicochemical

Voltage-gated inwardly rectifying potassium channel KCNH2, sequence (Q12809 whole entry): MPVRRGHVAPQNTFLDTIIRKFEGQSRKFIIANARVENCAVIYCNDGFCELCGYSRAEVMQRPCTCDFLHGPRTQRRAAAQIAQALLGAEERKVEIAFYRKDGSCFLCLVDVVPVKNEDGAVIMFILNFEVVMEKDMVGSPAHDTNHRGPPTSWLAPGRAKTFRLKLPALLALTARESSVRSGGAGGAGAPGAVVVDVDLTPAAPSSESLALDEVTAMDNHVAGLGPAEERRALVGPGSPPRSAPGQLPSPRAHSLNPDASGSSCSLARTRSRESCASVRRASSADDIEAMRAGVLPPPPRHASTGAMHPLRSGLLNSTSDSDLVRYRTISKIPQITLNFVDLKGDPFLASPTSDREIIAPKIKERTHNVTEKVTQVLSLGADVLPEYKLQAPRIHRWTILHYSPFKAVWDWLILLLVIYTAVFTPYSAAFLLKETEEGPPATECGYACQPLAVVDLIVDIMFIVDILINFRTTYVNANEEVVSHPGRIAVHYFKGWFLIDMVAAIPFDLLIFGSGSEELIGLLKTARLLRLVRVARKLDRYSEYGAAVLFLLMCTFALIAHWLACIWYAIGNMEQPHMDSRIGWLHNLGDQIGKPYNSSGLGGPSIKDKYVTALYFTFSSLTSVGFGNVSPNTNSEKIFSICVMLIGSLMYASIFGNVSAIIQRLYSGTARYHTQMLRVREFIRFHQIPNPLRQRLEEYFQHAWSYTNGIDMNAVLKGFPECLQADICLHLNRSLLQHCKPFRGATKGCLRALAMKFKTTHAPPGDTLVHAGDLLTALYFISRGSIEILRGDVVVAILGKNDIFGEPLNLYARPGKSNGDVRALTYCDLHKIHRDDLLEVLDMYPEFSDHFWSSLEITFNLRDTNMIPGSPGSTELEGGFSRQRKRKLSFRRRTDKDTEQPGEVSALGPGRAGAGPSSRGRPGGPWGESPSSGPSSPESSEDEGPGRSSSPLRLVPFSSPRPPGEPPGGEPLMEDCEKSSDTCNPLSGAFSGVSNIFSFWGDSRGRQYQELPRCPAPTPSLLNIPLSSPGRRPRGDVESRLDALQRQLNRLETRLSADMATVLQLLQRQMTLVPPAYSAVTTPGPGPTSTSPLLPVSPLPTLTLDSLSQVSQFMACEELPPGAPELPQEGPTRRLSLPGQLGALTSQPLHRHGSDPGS

| SMILES | Activity [1] [%] | IC50 [2] [nM] | also measured |
| --- | --- | --- | --- |
| c1ccc2[nH]cnc2c1 | 64 | – | – |
| NC(=O)c1ccccc1O | 34 | – | – |
| Nc1nccc2cc(CNCc3cccc(Oc4ccccc4)c3)ccc12 | – | 575 | – |
| Nc1nccc2cc(CNCCNc3ccccc3)ccc12 | – | 1480 | – |
| c1ccc2cnccc2c1 | 70 | – | – |
| Nc1nccc2cc(CNCCc3ccccc3)ccc12 | – | 1290 | IC50 [3]: 1290 nM; Ki [4]: 63.1 nM; Ki [5]: 3160 nM |
| Nc1nccc2cc(CNCCc3ccc(Cl)c(Cl)c3)ccc12 | – | 776 | – |
| O=S(=O)(c1cccc2cnccc12)N1CCCNCC1 [FASUDIL] | – | – | bioavailability [6]: 3.6%; Vd [7]: 1.8 L/kg |
| c1ccn2ccnc2c1 | 38 | – | – |
| C[C@@H](N)[C@H]1CC[C@H](C(=O)Nc2ccncc2)CC1 [Y-27632] | – | – | bioavailability [6]: 52%; clearance [8]: 50.9 mL/min/kg; Vd [7]: 3.8 L/kg; half-life [9]: 100 min |
| O=S(=O)(c1cccc2c(O)nccc12)N1CCCNCC1 [HYDROXYFASUDIL] | – | – | bioavailability [6]: 57%; clearance [8]: 34 mL/min/kg; Vd [7]: 2.4 L/kg; Ki [5]: 7940 nM; half-life [9]: 45 min |
| Nc1nccc2cc(OC3CCNCC3)ccc12 | – | 3630 | – |
| Nc1nccc2cc(O[C@H]3CCCN(Cc4ccccc4)C3)ccc12 | – | – | bioavailability [10]: 7%; Papp B→A [11]: 1.5 ×10⁻⁶ cm/s; half-life [12]: 22 min; half-life [13]: 492 min; half-life [14]: > 120 min; half-life [15]: 12 min; half-life [16]: 27 min; Vd [17]: 8.2 L/kg; Papp A→B [18]: 2.2 ×10⁻⁶ cm/s; clearance [19]: 295 mL/min/kg |
| CC(=O)c1ccccc1 | 60 | – | – |
| c1ccc2[nH]ncc2c1 | > 80 | – | – |
| O=C(Nc1nccs1)c1ccncc1 | > 80 | – | – |
| Nc1nccc2cc(CNCCc3cccc(C(F)(F)F)c3)ccc12 | – | 1700 | – |
| Nc1nccc2cc(OC3CCN(Cc4ccccc4)CC3)ccc12 | – | 4270 | – |

| SMILES | Activity [1] [%] | IC50 [2] [nM] | also measured |
| --- | --- | --- | --- |
| Nc1nccc2cc(CNCCOc3ccccc3)ccc12 | – | 589 | – |
| Cc1ccc(CCNCc2ccc3c(N)nccc3c2)cc1 | – | 813 | – |
| Cn1nc(C(C)(C)C)cc1N | 20 | – | – |
| CS(=O)(=O)N1CCC[C@H](Oc2ccc3c(N)nccc3c2)C1 | – | > 100000 | – |
| c1cc(N2CCOCC2)ccn1 | > 80 | – | – |
| Nc1ccnc2ccncc12 | > 80 | – | – |
| Nc1nccc2cc(CNCc3ccccc3)ccc12 | – | 6760 | – |
| Nc1nccc2cc(CNCc3ccc4ccccc4c3)ccc12 | – | 3470 | – |
| c1cc(-c2cnco2)ccn1 | > 80 | – | – |
| CN(CCc1ccccc1)Cc1ccc2c(N)nccc2c1 | – | 427 | – |
| CC1=NC(C(C)C)CO1 (configuration not stated) | 40 | – | – |
| NCc1ccc2c(N)nccc2c1 | – | 7760 | pKa [20]: 7.6 |
| c1ccc(-n2cccc2)nc1 | 30 | – | – |
| Nc1nc2c(c(=O)[nH]1)CC=N2 | 68 | – | – |
| CC1(C)C(=O)Nc2ccccc21 | 25 | – | – |
| Nc1nccc2cc(CNCCc3ccncc3)ccc12 | – | 1860 | – |
| COc1ccc(CCNCc2ccc3c(N)nccc3c2)cc1 | – | 1000 | – |
| Nc1ncnc2ccccc12 | > 80 | – | – |
